IC50 data for 24 compounds are collected here from article PMC2248166, “Quantitative peptide binding motifs for 19 human and mouse MHC class I molecules derived using positional scanning combinatorial peptide libraries” (Immunome Research, 2008).

Targets include HLA B*0801 (Homo sapiens, UniProt P01889, A93T/A95T/D138N/E176V/E187T/K202T/Q94N/R180D/S35A/V36M/Y33D/Y91F); HLA B*1501 (Homo sapiens, UniProt P01889, A329T/A93T/A95T/C349S/D201E/D98Y/E187L/E204Q/E69M/E70A/K202T/N87E/Q94N/R155S/R180W/S121R/S35A/S48A/V306I/V36M/Y140S/Y91S); HLA A*3001 (Homo sapiens, UniProt P04439, D140H/D185E/E176W/F33S/G80R/H175R/K168Q/R138E/R41S); HLA B*1503 (Homo sapiens, UniProt P01889, A329T/A93T/A95T/C349S/D201E/D98Y/E187L/E204Q/K202T/N87E/Q94N/R155S/R180L/S121R/S35A/V306I/V36M/Y140S/Y91S).

Common to all, as to assay: biochemical
Assay type in all cases: binding

pIC50: −log10 of the molar value. Where a SMILES comes first, the peptide text is derived from it.

HLA A*3001, sequence (P04439 25-365 limits assumed, stated change not applied): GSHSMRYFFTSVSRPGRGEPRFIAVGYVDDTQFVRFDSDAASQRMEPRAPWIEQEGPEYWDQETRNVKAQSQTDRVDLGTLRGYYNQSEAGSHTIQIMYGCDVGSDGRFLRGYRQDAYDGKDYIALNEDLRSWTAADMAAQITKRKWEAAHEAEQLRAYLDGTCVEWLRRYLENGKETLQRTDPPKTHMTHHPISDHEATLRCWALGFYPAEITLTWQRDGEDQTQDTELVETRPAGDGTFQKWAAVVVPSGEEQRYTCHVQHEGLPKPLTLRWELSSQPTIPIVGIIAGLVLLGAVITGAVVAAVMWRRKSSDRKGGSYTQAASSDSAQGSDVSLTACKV

For the compound `CC(C)[C@H](NC(=O)[C@H](C)NC(=O)[C@H](CO)NC(=O)[C@H](Cc1ccc(O)cc1)NC(=O)[C@H](CCCNC(=N)N)NC(=O)CNC(=O)[C@H](Cc1ccc(O)cc1)NC(=O)[C@@H](NC(=O)[C@@H](N)CCCCN)C(C)C)C(=O)O` [3102.0117] (H-KVYGRYSAV-OH), the negative logarithm of the IC50 (pIC50) is 8.38 against HLA B*0801 and 7.02 against HLA B*1501.

As for `CC(C)C[C@H](NC(=O)[C@H](C)NC(=O)[C@H](CCCNC(=N)N)NC(=O)[C@H](Cc1c[nH]cn1)NC(=O)[C@H](CC(C)C)NC(=O)[C@H](Cc1c[nH]c2ccccc12)NC(=O)[C@H](CCCNC(=N)N)NC(=O)[C@@H](NC(=O)[C@@H](N)Cc1ccccc1)C(C)C)C(=O)O` [3102.0526] (H-FVRWLHRAL-OH), the pIC50 is 9.00 against HLA B*0801 and 7.80 against HLA B*1501.

On to `CC[C@H](C)[C@H](NC(=O)[C@H](CO)NC(=O)[C@H](CCCNC(=N)N)NC(=O)[C@H](CO)NC(=O)[C@H](CCSC)NC(=O)[C@H](CO)NC(=O)[C@H](CCCNC(=N)N)NC(=O)[C@@H](NC(=O)[C@@H](N)CO)[C@@H](C)CC)C(=O)O` [3102.0527] (H-SIRSMSRSI-OH), for which the pIC50 against HLA B*0801 was 7.11; at HLA B*1501, 6.44.

With `CC[C@H](C)[C@H](NC(=O)[C@H](CCCCN)NC(=O)[C@H](CC(N)=O)NC(=O)[C@H](CCCCN)NC(=O)[C@@H](NC(=O)[C@@H](N)Cc1ccccc1)[C@@H](C)CC)C(=O)N[C@@H](Cc1c[nH]cn1)C(=O)N[C@@H](CC(C)C)C(=O)N[C@@H](CC(C)C)C(=O)O` [3102.0551] (H-FIKNKIHLL-OH), the negative logarithm of the IC50 (pIC50) at HLA B*0801 is 9.09; against HLA B*1501 it was 7.01.

Consider `CSCC[C@H](N)C(=O)N[C@@H](Cc1ccccc1)C(=O)N[C@@H](CCCNC(=N)N)C(=O)N[C@@H](CCCCN)C(=O)N[C@@H](CCCCN)C(=O)N[C@@H](CCCNC(=N)N)C(=O)N[C@@H](CC(C)C)C(=O)N[C@@H](Cc1ccccc1)C(=O)N[C@@H](CC(C)C)C(=O)O` [3102.0580] (H-MFRKKRLFL-OH), for which the pIC50 was 8.00 against HLA A*3001 and 8.96 at HLA B*0801.

`CC[C@H](C)[C@H](NC(=O)[C@@H](N)CC(C)C)C(=O)N[C@@H](CCCNC(=N)N)C(=O)N[C@@H](CC(N)=O)C(=O)N[C@@H](CCCCN)C(=O)N[C@@H](CCCNC(=N)N)C(=O)N[C@@H](CC(C)C)C(=O)N[C@@H](CO)C(=O)N[C@@H](CC(C)C)C(=O)O` [3102.0638] (H-LIRNKRLSL-OH): the pIC50 is 9.11 against HLA B*0801 and 6.34 against HLA B*1501.

On to `CC[C@H](C)[C@H](NC(=O)[C@@H](N)Cc1ccccc1)C(=O)N[C@@H](Cc1ccccc1)C(=O)N[C@@H](CC(C)C)C(=O)N[C@@H](CCCCN)C(=O)N[C@@H](CCCCN)C(=O)N[C@@H](CC(N)=O)C(=O)N[C@@H](CCC(=O)O)C(=O)N[C@@H](CC(C)C)C(=O)O` [3102.0673] (H-FIFLKKNEL-OH), for which the results for the pIC50 on HLA A*3001 and at HLA B*0801 were 7.36 and 7.01, respectively.

As for `CC[C@H](C)[C@H](NC(=O)[C@@H](N)CC(C)C)C(=O)NCC(=O)N[C@@H](C)C(=O)N[C@@H](CCCNC(=N)N)C(=O)N[C@@H](CCCNC(=N)N)C(=O)N[C@H](C(=O)N[C@@H](CO)C(=O)N[C@@H](Cc1ccccc1)C(=O)O)[C@@H](C)O` [3102.0774] (H-LIGARRTSF-OH), the negative logarithm of the IC50 (pIC50) on HLA B*0801 is 8.82; at HLA B*1501, 7.40.

`CC[C@H](C)[C@H](NC(=O)[C@H](Cc1ccccc1)NC(=O)[C@H](CC(C)C)NC(=O)[C@@H](NC(=O)[C@H](CC(C)C)NC(=O)[C@H](Cc1ccccc1)NC(=O)[C@@H]1CCCN1C(=O)[C@@H](NC(=O)[C@@H](N)CC(C)C)[C@@H](C)CC)[C@@H](C)CC)C(=O)O` [3102.0791] (H-LIPFLILFI-OH) gave a pIC50 against HLA B*0801 of 7.30.

For the compound `CC[C@H](C)[C@H](NC(=O)[C@H](C)N)C(=O)N[C@@H](CC(N)=O)C(=O)N[C@@H](CC(N)=O)C(=O)N[C@@H](CCCNC(=N)N)C(=O)N[C@H](C(=O)N[C@@H](CS)C(=O)N[C@H](C(=O)N[C@@H](CCSC)C(=O)O)C(C)C)[C@@H](C)CC` [3102.0865] (H-AINNRICVM-OH), the pIC50 against HLA B*0801 is 6.37; on HLA B*1501, 7.29.

Compound `CC[C@H](C)[C@H](NC(=O)[C@H](Cc1c[nH]cn1)NC(=O)[C@@H](NC(=O)[C@@H](N)CCSC)C(C)C)C(=O)N[C@@H](Cc1ccc(O)cc1)C(=O)N[C@@H](Cc1ccccc1)C(=O)N[C@H](C(=O)N[C@@H](CO)C(=O)N[C@@H](CC(C)C)C(=O)O)C(C)C` [3102.0878] (H-MVHIYFVSL-OH) had a pIC50 against HLA B*0801 of 8.85.

`CC[C@H](C)[C@H](NC(=O)[C@H](Cc1c[nH]cn1)NC(=O)[C@H](CC(N)=O)NC(=O)[C@H](CCCCN)NC(=O)[C@H](CCCNC(=N)N)NC(=O)[C@H](Cc1ccccc1)NC(=O)[C@H](CCCNC(=N)N)NC(=O)[C@@H](NC(=O)[C@@H](N)Cc1ccc(O)cc1)[C@@H](C)CC)C(=O)O` [3102.0888] (H-YIRFRKNHI-OH): the negative-log IC50 (pIC50) at HLA B*0801 is 8.85.

For `CC[C@H](C)[C@H](NC(=O)[C@@H](N)Cc1ccccc1)C(=O)N[C@@H](C)C(=O)N[C@@H](CCCCN)C(=O)N[C@@H](Cc1c[nH]cn1)C(=O)N[C@@H](Cc1ccccc1)C(=O)N[C@@H](CC(C)C)C(=O)N[C@@H](CCC(=O)O)C(=O)N[C@@H](CC(C)C)C(=O)O` [3102.0900] (H-FIAKHFLEL-OH), the pIC50 at HLA B*0801 was 8.89.

For the compound `CC(C)C[C@H](NC(=O)[C@@H](N)CC(C)C)C(=O)N[C@@H](CCCCN)C(=O)N1CCC[C@H]1C(=O)N[C@@H](CCCNC(=N)N)C(=O)N[C@@H](CS)C(=O)N[C@@H](CC(N)=O)C(=O)N1CCC[C@H]1C(=O)N[C@@H](C)C(=O)O` [3102.0901] (H-LLKPRCNPA-OH), the pIC50 on HLA B*0801 is 8.92; against HLA B*1501 it was 7.68.

At HLA B*0801, `CC[C@H](C)[C@H](NC(=O)[C@H](Cc1ccccc1)NC(=O)[C@H](CCCCN)NC(=O)[C@@H](NC(=O)[C@@H](N)Cc1ccc(O)cc1)[C@@H](C)CC)C(=O)N[C@@H](Cc1ccccc1)C(=O)N[C@@H](CC(C)C)C(=O)N[C@@H](CCC(N)=O)C(=O)N[C@@H](CCSC)C(=O)O` [3102.0918] (H-YIKFIFLQM-OH) showed a pIC50 of 8.07.

In the case of `CC[C@H](C)[C@H](NC(=O)[C@H](Cc1ccc(O)cc1)NC(=O)[C@H](C)NC(=O)[C@H](Cc1ccccc1)NC(=O)[C@H](Cc1ccc(O)cc1)NC(=O)[C@H](Cc1ccc(O)cc1)NC(=O)[C@H](CCCNC(=N)N)NC(=O)[C@H](CCC(=O)O)NC(=O)CN)C(=O)O` [3102.0936] (H-GERYYFAYI-OH), the negative-log IC50 (pIC50) on HLA B*0801 is 8.16. This pIC50 and that of the compound before are within 0.2 log units of each other.

`CC[C@H](C)[C@H](NC(=O)[C@H](CCC(N)=O)NC(=O)[C@H](CCC(=O)O)NC(=O)[C@H](Cc1ccccc1)NC(=O)[C@H](Cc1ccc(O)cc1)NC(=O)[C@H](CC(=O)O)NC(=O)[C@H](CCCNC(=N)N)NC(=O)[C@H](CC(C)C)NC(=O)[C@@H](N)CCC(=O)O)C(=O)O` [3102.0939] (H-ELRDYFEQI-OH): the pIC50 against HLA B*0801 is 7.89.

For `CSCC[C@H](NC(=O)[C@@H](N)CO)C(=O)N[C@@H](Cc1c[nH]cn1)C(=O)N[C@@H](Cc1ccccc1)C(=O)N[C@@H](Cc1ccc(O)cc1)C(=O)NCC(=O)N[C@@H](Cc1c[nH]c2ccccc12)C(=O)N[C@@H](CO)C(=O)N[C@@H](CC(C)C)C(=O)O` [3102.0946] (H-SMHFYGWSL-OH), the figures for the pIC50 on HLA B*0801 and against HLA B*1501 were 8.54 and 7.20, respectively.

In turn, `CC[C@H](C)[C@H](NC(=O)[C@@H](NC(=O)[C@H](CS)NC(=O)[C@@H](NC(=O)[C@H](CCCNC(=N)N)NC(=O)[C@H](CO)NC(=O)[C@H](CCCCN)NC(=O)[C@H](CO)NC(=O)[C@@H](N)CC(N)=O)[C@@H](C)CC)C(C)C)C(=O)O` [3102.0966] (H-NSKSRICVI-OH) had a pIC50 at HLA B*0801 of 7.96.

Regarding `CC[C@H](C)[C@H](NC(=O)[C@H](CS)NC(=O)[C@H](CS)NC(=O)[C@H](Cc1c[nH]cn1)NC(=O)[C@H](CCCNC(=N)N)NC(=O)[C@H](CO)NC(=O)[C@@H](NC(=O)[C@H](CCSC)NC(=O)[C@@H](N)CO)[C@@H](C)CC)C(=O)O` [3102.0973] (H-SMISRHCCI-OH), the values for the pIC50 on HLA B*0801 and against HLA B*1501 were 8.89 and 7.09, respectively.

In the case of `CC[C@H](C)[C@H](NC(=O)[C@H](Cc1ccccc1)NC(=O)[C@H](CCSC)NC(=O)[C@H](Cc1ccccc1)NC(=O)[C@H](CCCCN)NC(=O)[C@H](CC(N)=O)NC(=O)[C@H](CCCNC(=N)N)NC(=O)[C@@H](NC(=O)[C@@H](N)CCCNC(=N)N)[C@@H](C)CC)C(=O)O` [3102.0998] (H-RIRNKFMFI-OH), the pIC50 was 10.16 at HLA A*3001 and 8.80 against HLA B*0801.

On to `N=C(N)NCCC[C@H](NC(=O)[C@H](Cc1ccc(O)cc1)NC(=O)[C@H](CCCNC(=N)N)NC(=O)[C@H](CCCNC(=N)N)NC(=O)[C@H](CO)NC(=O)[C@@H](N)CO)C(=O)N[C@@H](CS)C(=O)N[C@@H](CO)C(=O)N[C@@H](Cc1ccccc1)C(=O)O` [3102.1158] (H-SSRRYRCSF-OH), for which the pIC50 on HLA B*0801 was 7.92.

For `CC[C@H](C)[C@H](N)C(=O)N[C@@H](CC(C)C)C(=O)N[C@@H](Cc1c[nH]cn1)C(=O)N[C@@H](Cc1c[nH]cn1)C(=O)N[C@@H](Cc1c[nH]cn1)C(=O)N[C@@H](CCCNC(=N)N)C(=O)N[C@@H](CC(N)=O)C(=O)N[C@H](C(=O)N[C@@H](Cc1ccccc1)C(=O)O)C(C)C` [3102.1250] (H-ILHHHRNVF-OH), the values for the pIC50 against HLA B*1503 and against HLA B*0801 were 8.89 and 7.89, respectively.

Regarding `CSCC[C@H](NC(=O)[C@H](CC(=O)O)NC(=O)[C@@H](NC(=O)[C@H](Cc1ccccc1)NC(=O)[C@H](Cc1c[nH]cn1)NC(=O)[C@H](CCSC)NC(=O)[C@H](CO)NC(=O)[C@H](CCC(N)=O)NC(=O)[C@@H](N)Cc1ccccc1)[C@@H](C)O)C(=O)O` [3102.1283] (H-FQSMHFTDM-OH), the pIC50 against HLA B*1503 was 8.29; on HLA B*0801 it was 7.08.
